In patent publication US20030207891A1, “Combination therapy for modulating the human sexual response” (Zonagen, Inc., priority 1997, published 2003):
Structures can show the parent of a compound that is named as a salt.

Assays:
corpus cavernosum = conditions: cited from earlier work; for erection after injection directly into the corpus cavernosum: hypodermic needle; for duration of erection after injection: intracavernosal, appropriate dose
[1] = test system: male erectile dysfunction; conditions: 25 mg and 50 mg; cited from earlier work
impotentia erectionis = conditions: buccal, 100 I.U. three times a day for 14 days; cited from earlier work
[2] = test system: spontaneous erections in men; experiment: Effect of phentolamine and a phosphodiesterase inhibitor on spontaneous erections in men (Example 3); assay type: in vivo, human; conditions: alone, no sexual stimulation
Excerpt: Example 3 describes a study on the effect of phentolamine and a phosphodiesterase inhibitor on spontaneous erections in men.
Papaverine, a known non-specific phosphodiesterase inhibitor, in combination with phentolamine mesylate was compounded in a rapidly dissolving formulation as set out in Table 5 except that papaverine at the doses indicated below was substituted for Sildenafil.

impotent men = conditions: ingestion; cited from earlier work

Row | Compound | erection after injection directly into the corpus cavernosum (corpus cavernosum) | other results
1 | CCN(CC)CCOC(=O)C(Cc1cccc2ccccc12)CC1CCCO1 (mixture of isomers) [naftidrofuryl] | caused erection | 
2 | CCCc1nn(C)c2c(=O)[nH]c(-c3cc(S(=O)(=O)N4CCN(C)CC4)ccc3OCC)nc12 [Sildenafil, 5-[2-ethoxy-5-(4-methylpiperazine-1-ylsulfonyl)phenyl]-1-methyl-3-proplyl-6,7-dihydro-1-H-pyrazolo[4,3-d]pyrimidin-7-one] |  | effectiveness at various doses [1]: effective
3 | CN(C)CCCN1c2ccccc2CCc2ccccc21 [imipramine] | caused erection | 
4 | CC[C@H](C)[C@@H]1NC(=O)[C@H](Cc2ccc(O)cc2)NC(=O)[C@@H](N)CSSC[C@@H](C(=O)N2CCC[C@H]2C(=O)N[C@@H](CC(C)C)C(=O)NCC(N)=O)NC(=O)[C@H](CC(N)=O)NC(=O)[C@H](CCC(N)=O)NC1=O [oxytocin] |  | improvement of impotentia erectionis, patients treated (impotentia erectionis): 12 of the 16
5 | COc1ccc(Cc2nccc3cc(OC)c(OC)cc23)cc1OC [papaverine] | caused erection | duration of erection after injection (corpus cavernosum): unrelenting erection lasting for hours
6 | CC(COc1ccccc1)N(CCCl)Cc1ccccc1 (centres unmarked) [phenoxybenzamine] | caused erection | duration of erection after injection (corpus cavernosum): unrelenting erection lasting for hours
7 | Cc1ccc(N(CC2=NCCN2)c2cccc(O)c2)cc1 [phentolamine mesylate] |  | spontaneous erections [2]: did not exhibit spontaneous erections
8 | Cc1ccc(N(CC2=NCCN2)c2cccc(O)c2)cc1 [phentolamine] | caused erection | 
9 | CC(=O)Oc1cc(C(C)C)c(OCCN(C)C)cc1C [thymoxamine] | caused erection | 
10 | COc1ccc(CCN(C)CCCC(C#N)(c2ccc(OC)c(OC)c2)C(C)C)cc1OC (centres unmarked) [verapamil] | caused erection | 
11 | COC(=O)[C@@H]1[C@H]2C[C@H]3c4[nH]c5ccccc5c4CCN3C[C@@H]2CC[C@@H]1O [yohimbine] |  | subjective improvement in erectile ability, impotent men treated (impotent men): 38%; treated patients reporting complete satisfaction (impotent men): 5%
